Assay results as given in patent publication US4483989A, “Synthesis of pyrido[4,3-b]carbazole derivatives” (priority 1973, dated 1984).
“And” between values parts separate entries of the source, which are not always exact repeats. Equal entries are not always repeated.

Tests used:
[1] = mice; for DLo (I.P.): single i.p. injection
From the text: (§1) The mice were randomized in each experimental series. A first routine experiment enable the death rate by toxicity to be determined and thus established the sublethal doses.
(§2) To evaluate the therapeutic activity of the compounds of the invention, doses of said compound were expressed basing them on the 30 days sublethal dose which was fixed at 1.

[2] = system: mouse L 1210 leukemia; assay: L1210 leukemia in mice: inoculum of 10^5 cells, single dose of compound 24 hours later; assay type: in vivo; details: for ILS (increased life span) %: I.V., dose 1 (the sublethal dose), inoculum 10^5 L1210 cells
[3] = system: mouse L 1210 leukemia; assay: as above; assay type: in vivo; details: for ILS (increased life span) %: inoculum 10^5 L1210 cells; for Criterion (i): ILS higher than 100%: intraperitoneal injection of 10^5 cells; for Cured animals: cured/total
From the text: The experimental tumor mouse L 1210 leukemia is commonly used to evaluate the effects of all the antitumor compounds now used in human therapeutics,as was described, for example, by C. C. ZUBROD in Proc. Nat. Acad. Sci. USA 69, 1972, pp. 1042-1047. This experimentally formed tumoral system permits very accurate quantitative evaluation of the activity of the compound tested and also, consequently, an objective comparison of the respective activities of various compounds, for example, according to the methods described by H. E. SKIPPER, F. M. SCHABEL Jr. and W. S. WILCOX in Cancer Chemiother. Rep. 1964, pp. 1-111 and 45, 1965, pp. 5-28.
as §1
According to the convention in force in this field, the animals which survived longer than 45 days after inoculation of tumoral cells were considered to be cured.
as §2
A--A tumoral inoculum of 10^5 L1210 leukemia cells was administered by the intraperitoneal way to twenty 2 to 3 months old DBA/2 strain female mice. 24 hours later, half of said mice received a single intraperitoneal injection of a variable dose of the compound to be tested and the same volume of solvent was administered to the other half of the mice by the same way; this latter half of the group of mice was therefore used as the control series. The mice were randomized in each experimental series.
Animals surviving for longer than 45 days were considered to be cured.

[4] = Metabolic studies in mice
[5] = Solubility; assay type: physicochemical
[6] = I.P., dose 0.1 of the sublethal dose
[7] = I.P., dose 0.2 of the sublethal dose
[8] = I.P., dose 0.6 of the sublethal dose
[9] = I.P., dose 0.005 of the sublethal dose
[10] = I.P., dose 0.01 of the sublethal dose
[11] = I.P., dose 0.02 of the sublethal dose
[12] = L1210 in vivo, intravenous injection
[13] = I.P., dose 1 (the sublethal dose)

| SMILES | DLo (I.V.) [1] | DLo (I.P.) [1] | ILS (increased life span) % [2] | ILS (increased life span) % [3, 6] | ILS (increased life span) % [3, 7] | ILS (increased life span) % [3, 8] | Criterion (i): ILS higher than 100% ([3]; L1210 in vivo) | ILS (increased life span) % [3, 9] | ILS (increased life span) % [3, 10] | ILS (increased life span) % [3, 11] | Chemotherapeutic index ([3]; L1210 in vivo) | Criterion (ii): occurrence of cured animals ([3]; L1210 in vivo) | ILS (increased life span) % [3, 13] | other results |
| --- | --- | --- | --- | --- | --- | --- | --- | --- | --- | --- | --- | --- | --- | --- |
| CC[n+]1ccc2c(C)c3c(c(C)c2c1)c1cc(O)ccc1n3C [9-hydroxy-6-methyl-2-ethyl-ellipticinium acetate] | 5 mg/kg | 50 mg/kg | 115% | 127% | 178% | 202% | + (increased life span (ILS) higher than 100% after intraperitoneal injection of 10^5 cells) | – | – | – | – | – | – | Increased life span (ILS) ([3]; L1210 in vivo, dose ≈ LDo /2): 102% |
| CC[n+]1ccc2c(C)c3[nH]c4ccc(OC(C)=O)cc4c3c(C)c2c1 [9-acetoxy-2-ethyl-ellipticinium acetate] | – | 50 mg/kg | – | 157% | – | 191% | – | 114% | 134% | 137% | 100 | + | – | ILS (increased life span) % ([3]; I.P., dose 0.3 of the sublethal dose): 180%; Cured animals ([3]; L1210 in vivo, dose LDo /3): 3/20 |
| Cc1c2ccncc2c(C)c2c1[nH]c1ccccc12 [ellipticine] | – | – | – | – | – | – | – | – | – | – | – | – | – | Metabolism [4]: hydroxylated in the 9-position and then glucuroconjugated |
| Cc1c2cc[n+](CCO)cc2c(C)c2c1[nH]c1ccc(O)cc12 [9-hydroxy-2-hydroxyethyl-ellipticinium acetate] | 20 mg/kg | 10 mg/kg | 146% | 159% and 151% | – | – | + (increased life span (ILS) higher than 100% after intraperitoneal injection of 10^5 cells) | – | 115% | – | – | + | 197% | Criterion (iv): persistence of the antileukemic action after an intravenous injection [2, 12]: +; ILS (increased life span) % ([3]; I.P., dose 0.05 of the sublethal dose): 133%; ILS (increased life span) % ([3]; I.P., dose 0.5 of the sublethal dose): 217%; ILS (increased life span) % ([3]; I.P., dose 1.5 of the sublethal dose): 282%; ILS (increased life span) % ([3]; I.V., dose 0.25 of the sublethal dose): 121%; ILS (increased life span) % ([3]; I.V., dose 0.5 of the sublethal dose): 140%; ILS (increased life span) % ([3]; I.V., dose 2 × 0.5 of the sublethal dose): 142%; ILS (increased life span) % ([3]; I.V., dose 3 × 0.25 of the sublethal dose): 125%; Increased life span (ILS) ([3]; L1210 in vivo, dose LDo /2): 117%; Cured animals ([3]; L1210 in vivo, dose LDo /2): 2/15 |
| Cc1c2c[n+](C)ccc2c(C)c2c1c1cc(O)ccc1n2C [9-hydroxy-6-methyl-ellipticinium iodomethylate] | – | – | – | – | – | – | – | – | – | – | – | – | – | Solubility [5]: much more soluble than the 9-hydroxy-ellipticinium iodomethylate |
| Cc1c2cc[n+](CCN3CCCCC3)cc2c(C)c2c1[nH]c1ccc(O)cc12 [9-hydroxy-2(β-piperidino-ethyl)-ellipticinium acetate] | 10 mg/kg | 50 mg/kg | – | 181% | 202% | – | + (increased life span (ILS) higher than 100% after intraperitoneal injection of 10^5 cells) | 119% | 124% | 131% | 100 | + | 171% | ILS (increased life span) % ([3]; I.P., dose 0.002 of the sublethal dose): 113%; ILS (increased life span) % ([3]; I.V., dose 1 (the sublethal dose)): 131%; Increased life span (ILS) ([3]; L1210 in vivo, dose LDo /5): 102%; Cured animals ([3]; L1210 in vivo, dose LDo): 5/15; Criterion (iv): persistence of the antileukemic action after an intravenous injection [3, 12]: + |
